Laboratory results: BigSolDB 2.1

SMILES: c1ccc(-c2ccc(C(c3ccccc3)n3ccnc3)cc2)cc1 (stereo unspecified)
- solubility (mole fraction) (in DMF, 283.17 K): 0.0149
- solubility (mole fraction) (in DMF, 288.13 K): 0.0177
- solubility (mole fraction) (in DMF, 293.15 K): 0.0208
- solubility (mole fraction) (in DMF, 298.18 K): 0.0245
- solubility (mole fraction) (in DMF, 303.14 K): 0.029
- solubility (mole fraction) (in DMF, 308.09 K): 0.0341
- solubility (mole fraction) (in DMF, 313.25 K): 0.0403
- solubility (mole fraction) (in DMF, 318.13 K): 0.0482
- solubility (mole fraction) (in DMF, 323.18 K): 0.0565
- solubility (mole fraction) (in acetonitrile, 283.24 K): 0.00109
- solubility (mole fraction) (in acetonitrile, 288.17 K): 0.0014
- solubility (mole fraction) (in acetonitrile, 293.15 K): 0.00176
- solubility (mole fraction) (in acetonitrile, 298.14 K): 0.00221
- solubility (mole fraction) (in acetonitrile, 303.08 K): 0.00277
- solubility (mole fraction) (in acetonitrile, 308.13 K): 0.00347
- solubility (mole fraction) (in acetonitrile, 313.16 K): 0.00439
- solubility (mole fraction) (in acetonitrile, 318.14 K): 0.00541
- solubility (mole fraction) (in acetonitrile, 323.11 K): 0.00682
- solubility (mole fraction) (in ethanol, 283.15 K): 0.0028
- solubility (mole fraction) (in ethanol, 288.18 K): 0.00342
- solubility (mole fraction) (in ethanol, 293.13 K): 0.00407
- solubility (mole fraction) (in ethanol, 298.15 K): 0.00512
- solubility (mole fraction) (in ethanol, 303.17 K): 0.0064
- solubility (mole fraction) (in ethanol, 308.14 K): 0.00782
- solubility (mole fraction) (in ethanol, 313.15 K): 0.00965
- solubility (mole fraction) (in ethanol, 318.2 K): 0.0122
- solubility (mole fraction) (in ethanol, 323.14 K): 0.0151
- solubility (mole fraction) (in ethyl acetate, 283.16 K): 0.00238
- solubility (mole fraction) (in ethyl acetate, 288.14 K): 0.00305
- solubility (mole fraction) (in ethyl acetate, 293.17 K): 0.00385
- solubility (mole fraction) (in ethyl acetate, 298.13 K): 0.00471
- solubility (mole fraction) (in ethyl acetate, 303.18 K): 0.00579
- solubility (mole fraction) (in ethyl acetate, 308.12 K): 0.00724
- solubility (mole fraction) (in ethyl acetate, 313.1 K): 0.00892
- solubility (mole fraction) (in ethyl acetate, 318.13 K): 0.0113
- solubility (mole fraction) (in ethyl acetate, 323.1 K): 0.0139
- solubility (mole fraction) (in isobutanol, 283.14 K): 0.00308
- solubility (mole fraction) (in isobutanol, 288.17 K): 0.0041
- solubility (mole fraction) (in isobutanol, 293.13 K): 0.00528
- solubility (mole fraction) (in isobutanol, 298.12 K): 0.00659
- solubility (mole fraction) (in isobutanol, 303.16 K): 0.00865
- solubility (mole fraction) (in isobutanol, 308.15 K): 0.0114
- solubility (mole fraction) (in isobutanol, 313.19 K): 0.0148
- solubility (mole fraction) (in isobutanol, 318.14 K): 0.0197
- solubility (mole fraction) (in isobutanol, 323.16 K): 0.0256
- solubility (mole fraction) (in isopentanol, 283.13 K): 0.00402
- solubility (mole fraction) (in isopentanol, 288.17 K): 0.00512
- solubility (mole fraction) (in isopentanol, 293.07 K): 0.00652
- solubility (mole fraction) (in isopentanol, 298.14 K): 0.00831
- solubility (mole fraction) (in isopentanol, 303.17 K): 0.0105
- solubility (mole fraction) (in isopentanol, 308.13 K): 0.0133
- solubility (mole fraction) (in isopentanol, 313.18 K): 0.0171
- solubility (mole fraction) (in isopentanol, 318.15 K): 0.0216
- solubility (mole fraction) (in isopentanol, 323.24 K): 0.0281
- solubility (mole fraction) (in isopropanol, 283.16 K): 0.00137
- solubility (mole fraction) (in isopropanol, 288.14 K): 0.00173
- solubility (mole fraction) (in isopropanol, 293.15 K): 0.0022
- solubility (mole fraction) (in isopropanol, 298.18 K): 0.00285
- solubility (mole fraction) (in isopropanol, 303.17 K): 0.00362
- solubility (mole fraction) (in isopropanol, 308.13 K): 0.00472
- solubility (mole fraction) (in isopropanol, 313.16 K): 0.00605
- solubility (mole fraction) (in isopropanol, 318.1 K): 0.00802
- solubility (mole fraction) (in isopropanol, 323.14 K): 0.0105
- solubility (mole fraction) (in methyl acetate, 283.12 K): 0.00263
- solubility (mole fraction) (in methyl acetate, 288.14 K): 0.00334
- solubility (mole fraction) (in methyl acetate, 293.15 K): 0.00413
- solubility (mole fraction) (in methyl acetate, 298.19 K): 0.00509
- solubility (mole fraction) (in methyl acetate, 303.17 K): 0.00618
- solubility (mole fraction) (in methyl acetate, 308.14 K): 0.0076
- solubility (mole fraction) (in methyl acetate, 313.18 K): 0.00926
- solubility (mole fraction) (in methyl acetate, 318.15 K): 0.0111
- solubility (mole fraction) (in methyl acetate, 323.13 K): 0.013
- solubility (mole fraction) (in n-butanol, 283.15 K): 0.00386
- solubility (mole fraction) (in n-butanol, 288.19 K): 0.00509
- solubility (mole fraction) (in n-butanol, 293.16 K): 0.00645
- solubility (mole fraction) (in n-butanol, 298.14 K): 0.00808
- solubility (mole fraction) (in n-butanol, 303.15 K): 0.01
- solubility (mole fraction) (in n-butanol, 308.23 K): 0.0132
- solubility (mole fraction) (in n-butanol, 313.11 K): 0.0163
- solubility (mole fraction) (in n-butanol, 318.18 K): 0.0203
- solubility (mole fraction) (in n-butanol, 323.14 K): 0.0257
- solubility (mole fraction) (in n-butyl acetate, 283.13 K): 0.00191
- solubility (mole fraction) (in n-butyl acetate, 288.16 K): 0.00233
- solubility (mole fraction) (in n-butyl acetate, 293.14 K): 0.00285
- solubility (mole fraction) (in n-butyl acetate, 298.19 K): 0.00345
- solubility (mole fraction) (in n-butyl acetate, 303.15 K): 0.00434
- solubility (mole fraction) (in n-butyl acetate, 308.18 K): 0.00527
- solubility (mole fraction) (in n-butyl acetate, 313.14 K): 0.00676
- solubility (mole fraction) (in n-butyl acetate, 318.13 K): 0.00835
- solubility (mole fraction) (in n-butyl acetate, 323.15 K): 0.0109
- solubility (mole fraction) (in n-pentanol, 283.1 K): 0.00445
- solubility (mole fraction) (in n-pentanol, 288.13 K): 0.00581
- solubility (mole fraction) (in n-pentanol, 293.15 K): 0.00739
- solubility (mole fraction) (in n-pentanol, 298.19 K): 0.00941
- solubility (mole fraction) (in n-pentanol, 303.16 K): 0.0117
- solubility (mole fraction) (in n-pentanol, 308.14 K): 0.0149
- solubility (mole fraction) (in n-pentanol, 313.17 K): 0.0184
- solubility (mole fraction) (in n-pentanol, 318.16 K): 0.0234
- solubility (mole fraction) (in n-pentanol, 323.12 K): 0.029
- solubility (mole fraction) (in n-propanol, 283.12 K): 0.00381
- solubility (mole fraction) (in n-propanol, 288.14 K): 0.00458
- solubility (mole fraction) (in n-propanol, 293.15 K): 0.00585
- solubility (mole fraction) (in n-propanol, 298.18 K): 0.00719
- solubility (mole fraction) (in n-propanol, 303.16 K): 0.00909
- solubility (mole fraction) (in n-propanol, 308.21 K): 0.0115
- solubility (mole fraction) (in n-propanol, 313.16 K): 0.0143
- solubility (mole fraction) (in n-propanol, 318.19 K): 0.0172
- solubility (mole fraction) (in n-propanol, 323.17 K): 0.0211
- solubility (mole fraction) (in n-propyl acetate, 283.15 K): 0.00215
- solubility (mole fraction) (in n-propyl acetate, 288.16 K): 0.00261
- solubility (mole fraction) (in n-propyl acetate, 293.09 K): 0.00342
- solubility (mole fraction) (in n-propyl acetate, 298.14 K): 0.00433
- solubility (mole fraction) (in n-propyl acetate, 303.15 K): 0.00541
- solubility (mole fraction) (in n-propyl acetate, 308.17 K): 0.00683
- solubility (mole fraction) (in n-propyl acetate, 313.11 K): 0.0087
- solubility (mole fraction) (in n-propyl acetate, 318.16 K): 0.0106
- solubility (mole fraction) (in n-propyl acetate, 323.1 K): 0.0131
- solubility (mole fraction) (in sec-butanol, 283.13 K): 0.00212
- solubility (mole fraction) (in sec-butanol, 288.16 K): 0.00286
- solubility (mole fraction) (in sec-butanol, 293.14 K): 0.0037
- solubility (mole fraction) (in sec-butanol, 298.17 K): 0.00503
- solubility (mole fraction) (in sec-butanol, 303.15 K): 0.00647
- solubility (mole fraction) (in sec-butanol, 308.12 K): 0.00841
- solubility (mole fraction) (in sec-butanol, 313.19 K): 0.011
- solubility (mole fraction) (in sec-butanol, 318.16 K): 0.0145
- solubility (mole fraction) (in sec-butanol, 323.15 K): 0.0183
